# Columns and labels:
# ICE = biological target: T1, ICE (Homo sapiens, UniProt P29466); assay: Enzyme assay with fluorescent substrate (Acetyl-Tyr-Val-Ala-Asp-AMC); Ki and second order rate constants kinact; assay type: biochemical; conditions: for kinact (ICE): second-order rate constant for inactivation, irreversible inhibitors (Table 2)
# T1 sequence (P29466 120-297 limits assumed): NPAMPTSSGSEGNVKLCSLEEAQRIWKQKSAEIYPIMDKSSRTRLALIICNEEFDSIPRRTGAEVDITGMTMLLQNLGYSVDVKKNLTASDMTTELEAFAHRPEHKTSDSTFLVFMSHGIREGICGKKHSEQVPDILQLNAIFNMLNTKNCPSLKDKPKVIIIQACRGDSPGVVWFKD
# T1 sequence (P29466 317-404 limits assumed): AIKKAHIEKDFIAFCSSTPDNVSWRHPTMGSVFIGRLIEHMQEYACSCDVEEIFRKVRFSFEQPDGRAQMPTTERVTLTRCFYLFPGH
# Description: 2. Enzyme Assay with Fluorescent Substrate
# This assay is run essentially according to Thornberry et al. (Nature 356: 768-774 (1992)), using substrate 17 referenced in that article. The substrate is: Acetyl-Tyr-Val-Ala-Asp-amino-4-methylcoumarin (AMC). The following components are mixed:
# The assay is run in a 96 well microtiter plate. Buffer and ICE are added to the wells. The components are left to incubate at 37° C. for 15 minutes in a temperature-controlled wellplate. After the 15 minute incubation, the reaction is started by adding substrate directly to the wells and the reaction is monitored @37° C. for 30 minutes by following the release of the AMC fluorophore using an excitation wavelength for 380 nm and an emission wavelength of 460 nm. A linear fit of the data for each well is performed and a rate is determined in fluorescence units per second.
# For determination of enzyme inhibition constants (Ki) or the mode of inhibition (competitive, uncompetitive or noncompetitive), the rate data determined in the enzyme assays at varying inhibitor concentrations are computer-fit to standard enzyme kinetic equations (see I. H. Segel, Enzyme Kinetics, Wiley-Interscience, 1975).
# The determination of second order rate constants for irreversible inhibitors was performed by fitting the fluorescence vs time data to the progress equations of Morrison. Morrison, J. F., Mol. Cell. Biophys., 2, pp. 347-368 (1985). Thornberry et al. have published a description of these methods for measurement of rate constants of irreversible inhibitors of ICE. Thornberry, N. A., et al. Biochemistry, 33, pp. 3923-3940 (1994). For compounds where no prior complex formation can be observed kinetically, the second order rate constants (kinact) are derived directly from the slope of the linear plots of kobs vs. [I]. For compounds where prior complex formation to the enzyme can be detected, the hyperbolic plots of kobs vs. [I] are fit to the equation for saturation kinetics to first generate Ki and k′. The second order rate constant kinact is then given by k′/Ki.
# (§1) The selectivity of a panel of reversible inhibitors for ICE homologs is depicted in Table 1. ICE enzyme assays were performed according to Wilson et al (supra 1994) using a YVAD-AMC substrate (Thornberry et al, supra 1992). Assay of TX activity was performed using the ICE substrate under identical conditions to ICE. Assay of CPP32 was performed using a DEVD-AMC substrate (Nicholson et al., supra 1995). In general, there is low selectivity between ICE and TX for a wide range of scaffolds. None of the synthetic ICE compounds tested are effective inhibitors of CPP32.
# (§2) Second-order rate constants for inactivation of ICE and ICE homologs with selected irreversible inhibitors are presented below (Table 2). The irreversible compounds studied are broad spectrum inhibitors of ICE and its homologs. Some selectivity, however, is observed with the irreversible compounds comparing inhibition of ICE and CPP32.
# TX = biological target: T2, TX (Homo sapiens, UniProt P49662); assay: Inhibition of ICE homologs: TX; assay type: biochemical; conditions: for Ki: ICE substrate, conditions identical to ICE (Table 1); for kinact (TX): second-order rate constant for inactivation, irreversible inhibitors (Table 2)
# T2 construct: made in house; host or cells: Spodoptera frugiperda (Sf9) insect cells, recombinant baculovirus (pVL1393/TX)
# T2 sequence (P49662 81-270 limits assumed): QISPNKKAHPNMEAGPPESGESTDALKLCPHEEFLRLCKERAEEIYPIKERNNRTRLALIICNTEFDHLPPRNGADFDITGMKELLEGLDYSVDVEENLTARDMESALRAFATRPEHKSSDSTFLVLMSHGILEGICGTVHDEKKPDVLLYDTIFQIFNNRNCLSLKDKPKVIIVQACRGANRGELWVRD
# T2 sequence (P49662 290-377 limits assumed): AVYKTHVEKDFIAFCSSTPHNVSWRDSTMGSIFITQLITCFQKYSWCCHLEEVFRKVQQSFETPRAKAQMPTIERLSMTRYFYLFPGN
# From the text: Expression of TX in insect cells using a baculovirus expression system. We have subcloned Tx cDNA (Faucheu et al., supra 1995) into a modified pVL1393 transfer vector, co-transfected the resultant plasmid (pVL1393/TX) into insect cells with viral DNA and identified the recombinant baculovirus. After the generation of high titer recombinant virus stock, the medium was examined for TX activity using the visible ICE assay. […] ICE was used as a standard in the assay.
# as §1, §2
# CPP32 = biological target: T3, CPP32 (Homo sapiens, UniProt P42574); assay: Inhibition of ICE homologs: CPP32 (DEVD-AMC substrate); conditions: for kinact (CPP32): second-order rate constant for inactivation, irreversible inhibitors (Table 2)
# T3 sequence (P42574 29-175 limits assumed): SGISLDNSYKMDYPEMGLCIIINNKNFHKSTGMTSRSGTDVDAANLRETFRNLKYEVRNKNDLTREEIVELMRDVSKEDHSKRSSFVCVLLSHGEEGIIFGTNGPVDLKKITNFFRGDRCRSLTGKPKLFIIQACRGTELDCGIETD
# T3 sequence (P42574 176-277 limits assumed): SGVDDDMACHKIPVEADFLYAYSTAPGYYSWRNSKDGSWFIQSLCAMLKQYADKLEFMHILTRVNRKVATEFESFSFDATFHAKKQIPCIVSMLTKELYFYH
# U937 cells = assay: Fas-induced apoptosis in U937 cells; conditions: Homo sapiens; for inhibition at 20 µM: U-937, read-out: Inhibition of apoptosis
# Description: Fas-Induced Apoptosis in U937 cells. Compounds were evaluated for their ability to block anti-Fas-induced apopotosis. […] We used this cell line for apoptosis studies. U937 cells were seeded in culture at 1×10^5 cells/ml and grown to ˜5×10^6 cells/ml. For apoptosis experiments, 2×10^6 cells were plated in 24-well tissue culture plates in 1 ml RPMI-1640-10% FBS and stimulated with 100 ng/ml anti-Fas antigen antibody (Medical and Biological Laboratories, Ltd.). After a 24 hr incubation at 37° C., the percentage of apoptotic cells was determined by FACS analysis using ApoTag reagents.
compound,measurement,setting,value
"CS(=O)(=O)N[C@H]1CCC(=O)N2CCC[C@@H](C(=O)N[C@@H](CC(=O)O)C(=O)COC(=O)c3sccc3Cl)N2C1=O [505 e, [3S(1S,9S)]5-(3-Chlorothien-2-oyloxy)-3-(6,10-dioxo-9-methanesulphonylamino-1,2,3,4,7,8,9,10-octahydro-6H-pyridazino[1,2-a][1,2]diazepine-1-carboxamido)-4-oxopentanoic acid]",Fluorescent Assay kinact,ICE; Table 18,420000 m^−1 s^−1
"O=C(O)C[C@H](NC(=O)[C@@H]1CCCN2C(=O)CC[C@H](NC(=O)CCc3ccccc3)C(=O)N12)C(=O)CSCc1ccccc1Cl [Compound 125b, [3S(1S,9S)]-3-(6,10-dioxo-1,2,3,4,7,8,9,10-octahydro)-9-(3-phenylpropionyl-amino)-6H-pyridazine[1,2-a][1,2]diazepine-1-carboxamido-5-(2-chlorophenyl-methylthio)-4-oxopentanoic acid]",Ki,TX,57 ± 13 nM
same,Ki,CPP32,> 1000 nM
COc1cccc2nc(C(=O)[C@H](CC(=O)O)NC(=O)[C@@H]3CCCN4C(=O)CC[C@H](NC(=O)CCc5ccccc5)C(=O)N34)oc12 [Compound 135a],Ki,TX,55 ± 9 nM
same,Ki,CPP32,> 1000 nM
O=C(O)C[C@H](NC(=O)[C@@H]1CCCN2C(=O)CC[C@H](NC(=O)CCc3ccccc3)C(=O)N12)C(=O)COC(=O)c1c(Cl)cccc1Cl [Compound 136],Fluorescent Assay kinact,ICE; Table 6,5.4 × 10^5 m^−1 s^−1
same,inhibition at 20 µM,U937 cells,> 75%
O=C(O)C[C@H](NC(=O)[C@@H]1CCCN2C(=O)CC[C@H](NC(=O)CCc3ccccc3)C(=O)N12)C(=O)c1ncc(-c2c(Cl)cccc2Cl)o1 [Compound 137],Ki,TX,40 ± 7 nM
same,Ki,CPP32,> 1000 nM
CS(=O)(=O)N[C@H]1CCC(=O)N2CCC[C@@H](C(=O)N[C@@H](CC(=O)O)C(=O)COC(=O)c3c(Cl)cccc3Cl)N2C1=O [Compound 138],Fluorescent Assay kinact,ICE; Table 6,1.2 × 10^5 m^−1 s^−1
same,kinact (ICE),ICE,"120,000 M^−1 s^−1"
same,kinact (TX),TX,"150,000 M^−1 s^−1"
same,inhibition at 20 µM,U937 cells,> 75%
same,kinact (CPP32),CPP32,"550,000 M^−1 s^−1"
"O=C(O)C[C@H](NC(=O)[C@@H]1CCCN2C(=O)CC[C@H](NC(=O)OCc3ccccc3)C(=O)N12)C(=O)COC(=O)c1c(Cl)cccc1Cl [Compound 217d, [3S(1S,9S)]3-(9-Benzyloxycarbonylamino-6,10-dioxo-1,2,3,4,7,8,9,10-octahydro-6H-pyridazino[1,2-a][1,2]-diazepine-1-carboxamido)-5-(2,6-dichlorobenzoyloxy)-4-oxopentanoic acid]",Fluorescent Assay kinact,ICE; Table 6,4.7 × 10^5 m^−1 s^−1
same,kinact (ICE),ICE,"475,000 M^−1 s^−1"
same,kinact (TX),TX,"250,000 M^−1 s^−1"
same,kinact (CPP32),CPP32,"150,000 M^−1 s^−1"
"O=C(O)C[C@H](NC(=O)[C@@H]1CCCN2C(=O)CC[C@H](NC(=O)c3ccccc3)C(=O)N12)C(=O)COC(=O)c1c(Cl)cccc1Cl [Compound 217e, [3S(1S,9S)]3-(9-Benzoylamino-6,10-dioxo-1,2,3,4,7,8,9,10-octahydro-6H-pyridazino[1,2-a][1,2]-diazepine-1-carboxamido)-5-(2,6-dichlorobenzoyloxy)-4-oxopentanoic acid]",IC50,"U937 cells; U-937, 24 h, read-out: IC50, anti-Fas-induced apoptosis",800 nM
"O=C(O)C[C@H](NC(=O)[C@@H]1CCCN2C(=O)CC[C@H](NC(=O)c3ccccc3)C(=O)N12)C(=O)CSc1nnnn1-c1ccccc1 [Compound 280, [3S(1S,9S)]3-(9-Benzoylamino-6,10-dioxo-1,2,3,4,7,8,9,10-octahydro-6H-pyridazino[1,2-a][1,2]diazepine-1-carboxamido)-4-oxo-5(1-phenyl-1H-tetrazole-5-thio)pentanoic acid]",Fluorescent Assay kinact,ICE; Table 6,4 × 10^5 m^−1 s^−1
"O=C(O)C[C@H](NC(=O)[C@@H]1CCCN2C(=O)CC[C@H](NC(=O)c3ccccc3)C(=O)N12)C(=O)COc1cccnc1 [Compound 283, [3S(1S,9S)]3-[9-Benzoylamino-6,10-dioxo-1,2,3,4,7,8,9,10-octahydro-6H-pyridazino[1,2-a][1,2]diazepine-1-carboxamido]-4-oxo-5-(3-pyridyloxy)pentanoic acid]",Fluorescent Assay kinact,ICE; Table 6,1 × 10^5 m^−1 s^−1
"COC(=O)N[C@H]1CCC(=O)N2CCC[C@@H](C(=O)N[C@@H](CC(=O)O)C(=O)COC(=O)c3c(Cl)cccc3Cl)N2C1=O [Compound 284, [3S(1S,9S)]5-(2,6-Dichlorobenzoyloxy)-3-[6,10-dioxo-9-(methoxycarbonyl)amino-1,2,3,4,7,8,9,10-octahydro-6H-pyridazino[1,2-a][1,2]diazepine-1-carboxamido]-4-oxopentanoic acid]",Fluorescent Assay kinact,ICE; Table 6,3.5 × 10^5 m^−1 s^−1
"COC(=O)N[C@H]1CCC(=O)N2CCC[C@@H](C(=O)N[C@@H](CC(=O)O)C(=O)COC(=O)c3c(C)cccc3C)N2C1=O [Compound 285, [3S(1S,9S)]5-(2,6-Dimethylbenzoyloxy)-3-[6,10-dioxo-9-(methoxycarbonyl)amino-1,2,3,4,7,8,9,10-octahydro-6H-pyridazino[1,2-a][1,2]diazepine-1-carboxamido]-4-oxopentanoic acid]",Fluorescent Assay kinact,ICE; Table 6,4.3 × 10^5 m^−1 s^−1
"CS(=O)(=O)N[C@H]1CCC(=O)N2CCC[C@@H](C(=O)N[C@@H](CC(=O)O)C(=O)COC(=O)c3cccc4ccccc34)N2C1=O [Compound 286, [3S(1S,9S)]3-(6,10-Dioxo-9-methanesulphonylamino-1,2,3,4,7,8,9,10-octahydro-6H-pyridazino[1,2-a][1,2]diazepine-1-carboxamido)-5-(1-naphthoyloxy)-4-oxopentanoic acid]",Fluorescent Assay kinact,ICE; Table 18,370000 m^−1 s^−1
"[3S(1S,9S)]3-[(6,10-Dioxo-9-(methanesulphonylamino)-1,2,3,4,7,8,9,10-octahydro-6H-pyridazino[1,2-a][1,2]diazepine-1-carboxamido]-5-(5-methyl-3-phenylisoxazoyloxy)-4-oxopentanoic acid [505 b]",Fluorescent Assay kinact,ICE; Table 18,190000 m^−1 s^−1

# Source: US20120165319A1, “INHIBITORS OF INTERLEUKIN-1 BETA CONVERTING ENZYME” (VERTEX PHARMACEUTICALS INCORPORATED, priority 1995, published 2012)
